Where two headings read alike, the source gives them in different places.
Experiments:
[1] = 3H-thymidine incorporation toxicity assay on ConA-stimulated uninfected bovine PBMC (CC50); conditions: bovine
Method: (§1) All the MMV compounds were initially tested for inhibitory activity on the growth of F100TpM, a bovine lymphocyte cell line infected by T. parva. […] All compounds were tested in triplicate.
(§2) The radiolabeled precursor ^3H-thymidine is incorporated into DNA strands during cell replication and radioisotope incorporation is often used as a measure of cell proliferation.
(§3) IC50 values were calculated using the Graph Pad Prism 7 software (GraphPad Software, Inc., La Jolla, CA), and average values of radio-isotope incorporation in wells with and without compound on the growth of F100TpM cells. The CC50 values were calculated using ^3H-thymidine incorporation values determined on the growth of PBMC stimulated with ConA. The therapeutic index of a compound was calculated by dividing the CC50 value with the IC50 value.

[2] = test system: F100TpM, a bovine lymphocyte cell line infected by T. parva; assay: 3H-thymidine incorporation growth assay on F100TpM cells (screen at 1 μM and IC50 titration); conditions: for TI (CC50/IC50), therapeutic index: CC50 on Con A blasts divided by IC50 on F100TpM;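 for all read-outs here: growth inhibition compared against wells lacking compound, run in triplicate, and CC50 derived from 3H-thymidine uptake by PBMC stimulated with ConA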
Method: as §1, §2, §3

in vitro = conditions: bovine, CC50 (μM) Con A blasts
Method: as §1, §2, §3

[3] = test system: P. falciparum 3D7 asexual blood stage; conditions: cited from earlier work
Trypanosoma cruzi = test system: Trypanosoma cruzi; set-up: method as in Van Voorhis et al., 2016; conditions: at 5 μM; ref Van Voorhis et al., 2016; cited from earlier work
[4] = test system: Plasmodium berghei ookinete; set-up: method as in Van Voorhis et al., 2016; conditions: at 10 μM; ref Van Voorhis et al., 2016; cited from earlier work
[5] = test system: P. falciparum gametocyte NF54-late stage; set-up: method as in Van Voorhis et al., 2016; conditions: at 5 μM; ref Van Voorhis et al., 2016; cited from earlier work
U87 = test system: U87; set-up: method as in Van Voorhis et al., 2016; conditions: at 5 μM; only one of nine cell lines tested; ref Van Voorhis et al., 2016; cited from earlier work
[6] = test system: bovine PBMC stimulated with ConA (Con A blasts); assay: 3H-thymidine incorporation toxicity assay on ConA-stimulated uninfected bovine PBMC (CC50); conditions: read-out: CC50 (μM) Con A blasts; uninfected bovine PBMC stimulated with ConA, 48 h compound, 3H-thymidine incorporation
Method: as §1, §2, §3

[7] = set-up: method as in MMV data sheet; conditions: at 5 uM; ref MMV data sheet; cited from earlier work
[8] = set-up: method as in MMV data sheets; conditions: at 5 uM; ref MMV data sheets; cited from earlier work
[9] = test system: bovine PBMC stimulated with ConA (Con A blasts)
Method: as §1, §2, §3

[10] = test system: Theileria annulata infected cell lines; set-up: method as in Hostettler et al., 2016; conditions: ref Hostettler et al., 2016; cited from earlier work
[11] = test system: human foreskin fibroblast control cells; set-up: method as in Hostettler et al., 2016; conditions: T. annulata assay; ref Hostettler et al., 2016; cited from earlier work
T. annulata gene TaSP = test system: T. annulata gene TaSP; set-up: method as in Hostettler et al., 2016; conditions: ref Hostettler et al., 2016; cited from earlier work
[12] = uninfected bovine PBMC stimulated with ConA (Con A blasts), CC50 (μM) Con A blasts, uninfected bovine PBMC stimulated with ConA, 48 h compound, 3H-thymidine incorporation
[13] = Bos taurus, Lymphocyte, read-out: IC50 (μM) F100TpM, T. parva infected lymphocyte cell line, 48 h compound, 3H-thymidine incorporation
[14] = MMV Malaria Box sheet, ref MMV data sheets, read-out: EC50_nM
[15] = source StJude, ref ChEMBL_NTD, read-out: CHEMBL EC50
[16] = read-out: IC50 (μM) F100TpM, T. parva infected lymphocyte cell line, 48 h compound, 3H-thymidine incorporation
[17] = MMV Malaria Box data sheet, ref MMV data sheets
[18] = MMV Malaria Box data sheet, ref MMV data sheets, read-out: EC50_nM
[19] = source GNF, ref ChEMBL_NTD, read-out: CHEMBL EC50
[20] = source GSK, ref ChEMBL_NTD, read-out: CHEMBL EC50
[21] = ChEMBL-NTD value per source (GNF, GSK, StJude), several values in a cell follow the order of the sources, read-out: CHEMBL EC50
[22] = MMV Malaria Box sheet, ref MMV data sheets
[23] = given in Comment because of solubility issue at 5 uM, ref MMV data sheets

## CC(C)(C)[C@H]1CC[C@H](CC2=C(O)C(=O)c3ccccc3C2=O)CC1 [Buparvaquone, reference compound]
[1]; [12]
  CC50 at 48 h: > 10 µM
[2]; [13]
  IC50: 0.0042 µM
[2]
  TI (CC50/IC50), therapeutic index: >2380
[2]; listed as buparvaquone
  TI (CC50/IC50), therapeutic index: more than 2000

## Cc1nc(Nc2ncc(C(=O)Nc3c(C)cccc3Cl)s2)cc(N2CCN(CCO)CC2)n1 [Dasatinib, dasatinib, reference compound]
In vitro
  CC50 at 48 h: > 10 µM
[2]
  TI (CC50/IC50), therapeutic index: > 2000

## Oc1ccc(Br)cc1CN1CCN(Cc2cccc(F)c2)CC1 [MMV000356]
[3]; [14]
  EC50: 1030 nM
[3]; [15]
  EC50: 1400 nM
[1]
  CC50 at 48 h: 0.86 µM
[2]; Bos taurus, Lymphocyte, read-out: IC50 (μM) F100TpM
  IC50: 0.87 µM
[2]
  TI (CC50/IC50), therapeutic index: 0.99

## COC(=O)Nc1nc2ccc(C(=O)c3ccccc3)cc2[nH]1 [MMV003152, Mebendazole, reference compound]
In vitro
  CC50 at 48 h: < 0.001 µM
[2]
  TI (CC50/IC50), therapeutic index: <0.001
[2]; [16]
  IC50: 0.36 µM
[2]; read-out: IC50 (μM) F100TpM, T. parva infected lymphocyte cell line, 48 h compound, 3H-thymidine incorporation, listed as mebendazole
  IC50: < 1 µM

## CCCN(CCC)CC(O)COc1ccccc1C(=O)Nc1ccccc1 (stereo not drawn) [MMV006455]
[3]; [17]
  percent_inh @ 5 uM: 98%
[3]; [18]
  EC50: 196 nM
[3]; [19]
  EC50: 365 nM
[3]; [20]
  EC50: 799 nM
[1]; [12]
  CC50 at 48 h: 0.9 µM
[2]; [13]
  IC50: 0.84 µM
[2]
  TI (CC50/IC50), therapeutic index: 1.07

## COc1cc(-c2nc(-c3ccc(Sc4ccccc4)cc3)c(-c3ccccc3)[nH]2)cc(OC)c1O [MMV007273]
[3]; [21]
  EC50: 1280 nM
[1]; [12]
  CC50 at 48 h: 0.06 µM
[2]; [13]
  IC50: 0.04 µM
[2]
  TI (CC50/IC50), therapeutic index: 1.5

## Clc1ccc2c(N3CCCC3)ccnc2c1 [MMV007363]
[3]; [22]
  percent_inh @ 5 uM: 97%
[3]; [14]
  EC50: 944 nM
[3]; [19]
  EC50: 283 nM
[1]; [12]
  CC50 at 48 h: 1.09 µM
[2]; [13]
  IC50: 1.93 µM
[2]
  TI (CC50/IC50), therapeutic index: 0.56

## COc1ccc2nc(C)cc(Nc3cccc(O)c3)c2c1 [MMV008212]
Trypanosoma cruzi
  growth inhibition of Trypanosoma cruzi: 100%
[4]
  growth inhibition of Plasmodium berghei ookinete: 76%
[5]
  growth inhibition of P. falciparum gametocyte NF54-late stage: 91%
[3]; [22]
  percent_inh @ 5 uM: 98%
[3]; [14]
  EC50: 969 nM
[3]; at 5 μM, ref Van Voorhis et al., 2016
  growth inhibition of P. falciparum 3D7 asexual blood stage: 98%
[3]; [19]
  EC50: 228 nM
U87
  cell death, U87 cell line: 76%
[1]; [12]
  CC50 at 48 h: > 5 µM
[6]
  CC50: > 10 µM
[2]; [13]
  IC50: 0.78 µM
[2]
  TI (CC50/IC50), therapeutic index: >12

## CCOc1cccc(C(=O)Nc2ccc(-c3nc4ccccc4[nH]3)cc2)c1 [MMV019202]
[3]; Comment column, ref MMV data sheet
  % inh. At 2.5 uM: 97%
[3]; value(s) per source (GSK, GNF, StJude), separated by semicolon, ref ChEMBL-NTD, read-out: CHEMBL EC50
  EC50: 1010 nM
[7]
  Solubility (Comment): Solubility issue at 5 uM

## COc1ccc(-c2nonc2NC(=O)c2cccc(Cl)c2)cc1OC [MMV020660]
[3]; [23]
  % inh. At 2.5 uM: 97%
[3]; [20]
  EC50: 876 nM
[8]
  Comment: solubility: Solubility issue at 5 uM

## COc1ccc(-c2cnc3ccc(N4CCCC4)nn23)cc1OC [MMV023985]
[9]
  CC50: < 1 nM
[2]
  TI (CC50/IC50), therapeutic index: <0.001
[2]; [16]
  IC50: 0.52 µM

## CCOC(=O)c1cnc2c(CC)cccc2c1O [MMV498479]
[3]; [21]
  EC50: 1660 nM
[1]; [12]
  CC50 at 48 h: 0.13 µM
[2]; [13]
  IC50: 0.05 µM
[2]
  TI (CC50/IC50), therapeutic index: 2.6

## CCOc1cc(Cl)c(C(C)NC(=O)c2ccccc2)cc1OCC (stereo not drawn) [MMV665800]
[3]; [17]
  percent_inh @ 5 uM: 96%
[3]; [18]
  EC50: 1370 nM
[3]; [20]
  EC50: 875 nM
[1]; [12]
  CC50 at 48 h: 0.53 µM
[2]; [13]
  IC50: 0.49 µM
[2]
  TI (CC50/IC50), therapeutic index: 1.08

## COc1ccc2c(=O)cc(C(Cl)(Cl)Cl)oc2c1 [MMV665820]
[3]; [17]
  percent_inh @ 5 uM: 94%
[3]; [18]
  EC50: 520 nM
[3]; [15]
  EC50: 15000 nM
[10]
  inhibitory activity on T. annulata cell lines: inhibitory
[11]
  viability of human foreskin fibroblast control cells: did not impair viability
T. annulata gene TaSP
  lowering of relative expression of T. annulata gene TaSP: failed to lower the relative expression of T. annulata gene TaSP by 50%
[1]; [12]
  CC50 at 48 h: 0.25 µM
[2]; [13]
  IC50: 0.15 µM
[2]
  TI (CC50/IC50), therapeutic index: 1.67

## CCCc1cc(O)c2c3c(c(=O)oc2c1)CN(C)CC3 [MMV665841]
[3]; [17]
  percent_inh @ 5 uM: 97%
[3]; [18]
  EC50: 146 nM
[3]; [19]
  EC50: 554 nM
[3]; [20]
  EC50: 873 nM
[1]; [12]
  CC50 at 48 h: 0.66 µM
[2]; [13]
  IC50: 0.36 µM
[2]
  TI (CC50/IC50), therapeutic index: 1.83

## CC(=O)c1ccc(NC(=O)CSc2nc(-c3ccccc3Cl)ns2)cc1 [MMV666124]
[3]; [23]
  % inh. At 2.5 uM: 88%
[3]; [20]
  EC50: 1130 nM
[8]
  Comment: solubility: Solubility issue at 5 uM

## CO[C@@H](C(=O)N1Cc2[nH]nc(NC(=O)c3ccc(N4CCN(C)CC4)cc3)c2C1)c1ccccc1 [MMV676600]
[9]
  CC50: < 1 nM
[2]
  TI (CC50/IC50), therapeutic index: <0.001
[2]; [16]
  IC50: 0.55 µM

## CNC(=O)c1nn(C)c2c1C(C)(C)Cc1cnc(Nc3ccc(N4CCN(C)CC4)cc3)nc1-2 [MMV676602]
[6]
  CC50: 0.3 µM
[2]
  TI (CC50/IC50), therapeutic index: 0.86
[2]; [16]
  IC50: 0.35 µM

## Cc1nn(C)c(C)c1NS(=O)(=O)c1c(Cl)cc(-c2ccnc(N3CCNCC3)c2)cc1Cl [MMV688180]
[6]
  CC50: < 0.001 µM
[2]
  TI (CC50/IC50), therapeutic index: <0.001
[2]; [16]
  IC50: 0.97 µM

## N=C(N)Nc1ccc(-c2ccc(-c3ccc(N=C(N)N)c(Cl)c3)o2)cc1Cl [MMV688271]
[9]
  CC50: 560 nM
[2]
  TI (CC50/IC50), therapeutic index: 0.95
[2]; [16]
  IC50: 0.59 µM

## O=C(Nc1ccc(F)c(-c2nc3ncc(-c4ccccc4)cc3[nH]2)c1)N1CCCC1 [MMV688372]
[2]; [16]
  IC50: 0.61 µM

## CC(=O)OCC1OC([S-])C(OC(C)=O)C(OC(C)=O)C1OC(C)=O.CCP(CC)CC.[Au+] (stereo not drawn) [MMV688978, Auranofin, reference compound]
[6]
  CC50: 0.4 µM
[2]
  TI (CC50/IC50), therapeutic index: 0.74
[2]; [16]
  IC50: 0.54 µM
[2]; read-out: IC50 (μM) F100TpM, T. parva infected lymphocyte cell line, 48 h compound, 3H-thymidine incorporation, listed as auranofin
  IC50: < 1 µM

Reference: paper PMC6376154 (International Journal for Parasitology: Drugs and Drug …, 2019)
